Data as given in patent US4672068A, “Antihypertensive 1,4-dihydropyridines having a conjugated ester” (Fujirebio Kabushiki Kaisha, priority 1984, dated 1987).

System: Male spontaneously hypertensive rats (SHR), arterial blood pressure
Test: Depressor response after intravenous administration (30 μg/kg), Table 1
Assay type: in vivo, rat
Details: for Duration: '90<' means greater than 90
Description: Male spontaneously hypertensive rats (SHR) which had mean arterial blood pressures higher than 140 mmHg were used for the experiments. Arterial blood pressure was measured through the catherized artery with a pressure transducer (MPU-0.5, manufactured by Nihon Kohden Kabushiki Kaisha). The catheter was inserted into the abdominal aorta via the median coccygcal artery of SHR under light ether anesthesia. The recordings were made on a rectigraph (manufactured by Sanei Sokki Kabushiki Kaisha). The 1,4-dihydropyridine derivatives prepared in the foregoing examples were administered with catheter which was inserted previously into the caudal vein or duodenum at least two hours after the operation. SHR were restrained with wire mesh cage immediately after the operation. Each derivative to be tested was dissolved in 1.5% PVP/ethanol, and then diluted with 0.9% saline or intravenous administration (30 μg/kg), or suspended in 5% gum arabic solution of intraduodenal administration (1 mg/kg).

| Molecule | The time to reach the lowest BP | ΔBP (Maximum depressor response) | Duration |
| --- | --- | --- | --- |
| CC=CC=CCOC(=O)C1=C(C)NC(C)=C(C(=O)OC)C1c1cccc(C(F)(F)F)c1 (stereo not shown) [Example 72, methyl 2,4-hexadienyl 4-(3-trifluoromethylphenyl)-2,6-dimethyl-1,4-dihydropyridine-3,5-dicarboxylate] | 1.5 min | 63 mmHg | > 120 min |
| COC(=O)C1=C(C)NC(C)=C(C(=O)OCC=CC=Cc2ccc3ccccc3c2)C1c1cccc([N+](=O)[O-])c1 (stereo not shown) [Example 53, Methyl 5-(2-naphthyl)-2,4-pentadienyl 4-(3-nitrophenyl)-2,6-dimethyl-1,4-dihydropyridine-3,5-dicarboxylate] | 18 min | 25 mmHg | 90 min |
| COC(=O)C1=C(C)NC(C)=C(C(=O)OC/C=C/C=C\c2ccccc2)C1c1cccc([N+](=O)[O-])c1 (stereo not shown) [Example 58, Methyl (2E,4Z)-5-phenyl-2,4-pentadienyl 4-(3-nitrophenyl)-2,6-dimethyl-1,4-dihydropyridine-3,5-dicarboxylate] | 1.9 min | 64 mmHg | – |
| COC(=O)C1=C(C)NC(C)=C(C(=O)OCC=CC=Cc2ccco2)C1c1cccc([N+](=O)[O-])c1 (stereo not shown) [Example 52, Methyl 5-(2-furyl)-2,4-pentadienyl 4-(3-nitrophenyl)-2,6-dimethyl-1,4-dihydropyridine-3,5-dicarboxylate] | 2.0 min | 55 mmHg | > 90 min |
| Benzyl 2,4-hexadienyl 4-(2-furyl)-2,6-dimethyl-1,4-dihydropyridine-3,5-dicarboxylate [Example 81] | 2.0 min | 25 mmHg | – |
| COC(=O)C1=C(C)NC(C)=C(C(=O)OCC=Cc2ccccc2)C1c1cccs1 (stereo not shown) [Example 65, Cinnamyl methyl 4-(2-thienyl)-2,6-dimethyl-1,4-dihydropyridine-3,5-dicarboxylate] | 0.3 min | 18 mmHg | – |
| COC(=O)C1=C(C)NC(C)=C(C(=O)OCC=C(c2ccccc2)c2ccccc2)C1c1cccc([N+](=O)[O-])c1 (stereo not shown) [Example 9, 3,3-diphenyl-2-propenyl methyl 4-(3-nitrophenyl)-2,6-dimethyl-1,4-dihydropyridine-3,5-dicarboxylate] | 13 min | 12 mmHg | > 240 min |
| CC=CC=CCOC(=O)C1=C(C)NC(C)=C(C(=O)OC(C)(C)C)C1c1cccc([N+](=O)[O-])c1 (stereo not shown) [Example 75, tert-butyl 2,4-hexadienyl 4-(3-nitrophenyl)-2,6-dimethyl-1,4-dihydropyridine-3,5-dicarboxylate] | 1 min | 28 mmHg | – |
| COC(=O)C1=C(C)NC(C)=C(C(=O)OCC=CC=Cc2cccc3ccccc23)C1c1cccc([N+](=O)[O-])c1 (stereo not shown) [Example 54, Methyl 5-(1-naphthyl)-2,4-pentadienyl 4-(3-nitrophenyl)-2,6-dimethyl-1,4-dihydropyridine-3,5-dicarboxylate] | 6.0 min | 30 mmHg | > 90 min |
| CC1=C(C(=O)OCC=Cc2ccccc2)C(c2cccc([N+](=O)[O-])c2)C(C(=O)OC(C)C=Cc2ccccc2)=C(C)N1 (stereo not shown) [Example 47, Cinnamyl 1-methyl-3-phenyl-2-propenyl 4-(3-nitrophenyl)-2,6-dimethyl-1,4-dihydropyridine-3,5-dicarboxylate] | 48 min | 67 mmHg | > 120 min |
| COC(=O)C1=C(C)NC(C)=C(C(=O)OC(C)(C)C=Cc2ccccc2)C1c1cccc([N+](=O)[O-])c1 (stereo not shown) [Example 23, 1,1-dimethyl-3-phenyl-2-propenyl methyl 4-(3-nitrophenyl)-2,6-dimethyl-1,4-dihydropyridine-3,5-dicarboxylate] | 2.2 min | 48 mmHg | – |
| C=C(C)COC(=O)C1=C(C)NC(C)=C(C(=O)OCC=CC=CC)C1c1cccc([N+](=O)[O-])c1 (stereo not shown) [Example 77, 2-methyl-2-propen-1-yl 2,4-hexadienyl 4-(3-nitrophenyl)-2,6-dimethyl-1,4-dihydropyridine-3,5-dicarboxylate] | 2 min | 60 mmHg | – |
| COC(=O)C1=C(C)NC(C)=C(C(=O)OC(C)C=CC2=C(C)CCCC2(C)C)C1c1cccc([N+](=O)[O-])c1 (stereo not shown) [Example 74] | 20 min | 75 mmHg | > 120 min |
| CC=CC=CCOC(=O)C1=C(C)NC(C)=C(C(=O)OCCC)C1c1cccc([N+](=O)[O-])c1 (stereo not shown) [Example 84, n-propyl 2,4-hexadienyl 4-(3-nitrophenyl)-2,6-dimethyl-1,4-dihydropyridine-3,5-dicarboxylate] | 2 min | 35 mmHg | – |
| C=CCOC(=O)C1=C(C)NC(C)=C(C(=O)OCC=CC=CC)C1c1cccc([N+](=O)[O-])c1 (stereo not shown) [Example 80, Allyl 2,4-hexadienyl 4-(3-nitrophenyl)-2,6-dimethyl-1,4-dihydropyridine-3,5-dicarboxylate] | 1.4 min | 40 mmHg | – |
| COC(=O)C1=C(C)NC(C)=C(C(=O)OCCC=Cc2ccc(C)cc2)C1c1cccc([N+](=O)[O-])c1 (stereo not shown) [Example 20, 4-(p-methylphenyl)-3-butenyl methyl 4-(3-nitrophenyl)-2,6-dimethyl-1,4-dihydropyridine-3,5-dicarboxylate] | 1.8 min | 52.5 mmHg | 90 min |
| CC=CC=CCOC(=O)C1=C(C)NC(C)=C(C(=O)OCC=Cc2ccccc2)C1c1cccc([N+](=O)[O-])c1 (stereo not shown) [Example 71, Cinnamyl 2,4-hexadienyl 4-(3-nitrophenyl)-2,6dimethyl-1,4-dihydropyridine-3,5-dicarboxylate] | 10 min | 42 mmHg | > 90 min |
| COC(=O)C1=C(C)NC(C)=C(C(=O)OC(C=Cc2ccccc2)C(C)C)C1c1cccc([N+](=O)[O-])c1 (stereo not shown) [Example 8, 1-isopropyl-3-phenyl-2-propenyl methyl 4-(3-nitrophenyl)-2,6-dimethyl-1,4-dihydropyridine-3,5-dicarboxylate] | 25 min | 87 mmHg | > 180 min |
| C=CCCOC(=O)C1=C(C)NC(C)=C(C(=O)OCC=CC=CC)C1c1cccc([N+](=O)[O-])c1 (stereo not shown) [Example 79, 3-butenyl 2,4-hexadienyl 4-(3-nitrophenyl)-2,6-dimethyl-1,4-dihydropyridine-3,5-dicarboxylate] | 2.7 min | 55 mmHg | – |
| CC=CC=CCOC(=O)C1=C(C)NC(C)=C(C(=O)OCC2CC2)C1c1cccc([N+](=O)[O-])c1 (stereo not shown) [Example 85, Cyclopropylmethyl 2,4-hexadienyl 4-(3-nitrophenyl)-2,6-dimethyl-1,4-dihydropyridine-3,5-dicarboxylate] | 2.6 min | 35 mmHg | – |
| COC(=O)C1=C(C)NC(C)=C(C(=O)OC/C=C\C=C\c2ccccc2)C1c1cccc([N+](=O)[O-])c1 (stereo not shown) [Example 59, Methyl (2Z,4E)-5-phenyl-2,4-pentadienyl 4-(3-nitrophenyl)-2,6-dimethyl-1,4-dihydropyridine-3,5-dicarboxylate] | 1.8 min | 56.7 mmHg | – |
| COCCOC(=O)C1=C(C)NC(C)=C(C(=O)OCC=Cc2ccccc2)C1c1cccc([N+](=O)[O-])c1 (stereo not shown) [Example 13, Cinnamyl 2-methoxyethyl 4-(3-nitrophenyl)-2,6-dimethyl-1,4-dihydropyridine-3,5-dicarboxylate] | 2.0 min | 35 mmHg | > 270 min |
| CCC(C=Cc1ccccc1)OC(=O)C1=C(C)NC(C)=C(C(=O)OC)C1c1cccc([N+](=O)[O-])c1 (stereo not shown) [Example 25, 1-ethyl-3-phenyl-2-propenyl methyl 4-(3-nitrophenyl)-2,6-dimethyl-1,4-dihydropyridine-3,5-dicarboxylate] | 10 min | 71 mmHg | > 240 min |
| CCCC(C=Cc1ccccc1)OC(=O)C1=C(C)NC(C)=C(C(=O)OC)C1c1cccc([N+](=O)[O-])c1 (stereo not shown) [Example 10, 1-propyl-3-phenyl-2-propenyl methyl 4-(3-nitrophenyl)-2,6-dimethyl-1,4-dihydropyridine-3,5-dicarboxylate] | 12.5 min | 72 mmHg | > 90 min |
| CC1=C(C(=O)OCC=Cc2ccccc2)C(c2cccc([N+](=O)[O-])c2)C(C(=O)OCCSc2ccccc2)=C(C)N1 (stereo not shown) [Example 42, Cinnamyl 2-phenylthioethyl 4-(3-nitrophenyl)-2,6-dimethyl-1,4-dihydropyridine-3,5-dicarboxylate] | 10 min | 35 mmHg | > 90 min |
| CC=CC=CCOC(=O)C1=C(C)NC(C)=C(C(=O)OC2CCCCC2)C1c1cccc([N+](=O)[O-])c1 (stereo not shown) [Example 70, Cyclohexyl 2,4-hexadienyl 4-(3-nitrophenyl)-2,6-dimethyl-1,4-dihydropyridine-3,5-dicarboxylate] | 7.0 min | 65 mmHg | > 90 min |
